Test results reported in patent US20260256789A1, “METHODS FOR TREATMENT OF CANCER” (Frontier Medicines Corporation, priority 2022, published 2026).

Target: T1, KRAS G12C (GMPPNP-loaded) and cRAF Ras-binding domain (Homo sapiens, UniProt P01116, C118S/C51S/C80L/G12C)
T1 construct: truncated version comprising amino acids 1-169
Assay: Inhibition of KRAS G12C and cRAF binding (AlphaScreen)
Details: KRAS G12C preloaded with GTP analogue GMPPNP, 2 hours preincubation
Excerpt: The ability of compounds of Formula (A), Formula (B) and Formula (C), and pharmaceutically acceptable salts and/or isotopologues thereof, to inhibit activity of the GTP-bound form of KRAS G12C can be tested using methods such as the in vitro assay described in Example 179 below. Example 179 describes determining, for various compounds, the half-maximal inhibition (IC50) of KRAS G12C loaded with GTP analogue GMPPNP from binding to cRaf, as the Ras-binding domain (RBD). Example 180 describes determining, for various compounds, the half-maximal inhibition (IC50) of KRAS G12C loaded with GTP analogue GMPPNP from binding to PI3Kα, as the Ras-binding domain (RBD). Example 181 describes testing compounds for the ability to inhibit cell viability in MCF10A G12C/A59G mutant, which abrogates GTPase activity, thus preventing hydrolysis of GTP to GDP.
The AlphaScreen technology was used to determine IC50s for compound inhibition of KRAS G12C (present as the Cys-light (C51S, C80L and C118S), truncated version comprising amino acids 1-169) and cRAF interaction. Compounds were diluted in 100% DMSO and each compound concentration was spotted at 200 nl/well onto low volume, white 384 well plates. The KRAS G12C contained a biotin-AviTag and the cRaf, as Ras-binding domain (amino acids 50-131, RBD), was GST-tagged. KRAS G12C was preloaded with the GTP analogue Guanosine 5′-[β,γ-imido]triphosphate (GMPPNP). The KRAS G12C was diluted in 25 mM Hepes, pH 7.4, 150 mM NaCl, 5 mM MgCl2, 0.01% TritonX-100 and 10 μM GMPPNP and added at 10 ul/well to compound-spotted plates resulting in a DMSO concentration of 2%. Plates were incubated for 2 hours. A mixture of RBD and the AlphaScreen streptavidin donor and glutathione acceptor beads diluted in 25 mM Hepes, pH 7.4, 150 mM NaCl, 5 mM MgCl2, 0.01% TritonX-100 and 2% DMSO was then added at 10 ul/well and incubated for 60-90 minutes before the samples were read for emission at 570 nm after excitation of the donor beads at 680 nm. All incubations were performed at room temperature. The final top compound concentration was 50 μM with 1:3 titrations for 10-point dose response curves. Final assay conditions were 0.5 nM KRAS G12C, 0.75 nM RBD and 5 μg/ml each of AlphaScreen donor and acceptor beads. IC50s were determined using nonlinear regression fit of [inhibitor] vs. response (4 parameters). […]

T1 sequence (P01116 1-169 isoform P01116-2 G12C/C51S/C80L/C118S): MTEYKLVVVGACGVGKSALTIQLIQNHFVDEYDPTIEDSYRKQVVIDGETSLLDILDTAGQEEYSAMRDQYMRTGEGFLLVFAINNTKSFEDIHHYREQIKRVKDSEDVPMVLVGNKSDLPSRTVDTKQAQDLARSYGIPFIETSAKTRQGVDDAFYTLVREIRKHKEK

IC50	SMILES
< 10 nM	Cc1cc(N)nc(-c2ncc3c(N(C)[C@@H]4CCN(C(=O)/C=C/c5nc(C(C)(C)O)no5)C4)nc(OC[C@@]45CCCN4C[C@H](F)C5)nc3c2F)c1C(F)(F)F [Example 139]
≥ 500 nM	C=CC(=O)N1CC[C@@H](N(C)c2nc(OC[C@@]34CCCN3C[C@H](F)C4)nc3c(F)c(-c4cn[nH]c4C4CC4)ncc23)C1 [Example 179]
≥ 500 nM	C=CC(=O)N1CC[C@@H](N(C)c2nc(OC[C@@]34CCCN3C[C@H](F)C4)nc3c(F)c(-c4ccc(O)cc4C4CC4)ncc23)C1 [Example 233]
100 to 500 nM	CN1CC[C@H]1/C=C/C(=O)N1CC[C@@H](N(C)c2nc(OC[C@@]34CCCN3C[C@H](F)C4)nc3c(F)c(-c4nc(N)cc5cccc(F)c45)ncc23)C1 (single isomer, unassigned) [Example 2]
< 10 nM	Cc1noc(/C=C/C(=O)N2CC[C@@H](N(C)c3nc(OCC45CCCN4CCC5)nc4c3CC(C)C(c3nc(N)cc(C)c3C(F)(F)F)C4)C2)n1 (stereo partly shown) [Example 143]
10 to 100 nM	CN(c1nc(OC[C@@]23CCCN2C[C@H](F)C3)nc2c(F)c(-c3cccc(Cl)c3C3CC3)ncc12)[C@@H]1CCN(C(=O)/C=C/CN2CC[C@H](F)C2)C1 [Example 238]
10 to 100 nM	CN(CC1CN(C(=O)/C=C/CN2CCOCC2)C1)c1nc(OC[C@@]23CCCN2C[C@H](F)C3)nc2c(F)c(-c3nc(N)cc4cccc(Cl)c34)ncc12 [Example 84, (E)-1-(3-(((7-(3-amino-8-chloroisoquinolin-1-yl)-8-fluoro-2-(((2R,7aS)-2-fluorotetrahydro-1H-pyrrolizin-7a(5H)-yl)methoxy)pyrido[4,3-d]pyrimidin-4-yl)(methyl)amino)methyl)azetidin-1-yl)-4-morpholinobut-2-en-1-one]
≥ 500 nM	CN(CC1CN(C(=O)/C=C/CN2CCOCC2)C1)c1nc(OC[C@@]23CCCN2C[C@H](F)C3)nc2c(F)c(-c3nc(N)cc4cccc(F)c34)ncc12 [Example 80, (E)-1-(3-(((7-(3-amino-8-fluoroisoquinolin-1-yl)-8-fluoro-2-(((2R,7aS)-2-fluorotetrahydro-1H-pyrrolizin-7a(5H)-yl)methoxy)pyrido[4,3-d]pyrimidin-4-yl)(methyl)amino)methyl)azetidin-1-yl)-4-morpholinobut-2-en-1-one]

Further lines, the compound ahead of its results:

SMILES	IC50
C=CC(=O)N1CC[C@@H](N(C)c2nc(OC[C@@]34CCCN3C[C@H](F)C4)nc3c2CC(C)C(c2nc(N)cc(C)c2C(F)(F)F)C3)C1 (stereo partly shown) [Example 138]	100 to 500 nM
C=CC(=O)N1CC[C@@H](N(C)c2nc(OC[C@@]34CCCN3C[C@H](F)C4)nc3c(F)c(-c4c(O)cccc4C4CC4)ncc23)C1 [Example 218]	≥ 500 nM
CC(C)c1noc(/C=C/C(=O)N2CC[C@@H](N(C)c3nc(OC[C@@]45CCCN4C[C@H](F)C5)nc4c(F)c(-c5nc(N)ccc5C5CC5)ncc34)C2)n1 [Example 8, (E)-1-((R)-3-((7-(6-amino-3-cyclopropylpyridin-2-yl)-8-fluoro-2-(((2R,7aS)-2-fluorotetrahydro-1H-pyrrolizin-7a(5H)-yl)methoxy)pyrido[4,3-d]pyrimidin-4-yl)(methyl)amino)pyrrolidin-1-yl)-3-(3-isopropyl-1,2,4-oxadiazol-5-yl)prop-2-en-1-one]	10 to 100 nM
CN(c1nc(OC[C@@]23CCCN2C[C@H](F)C3)nc2c(F)c(-c3nc(N)cc4cccc(F)c34)ncc12)[C@@H]1CCN(C(=O)/C=C/c2nc(C(C)(C)O)no2)C1 [Example 142]	< 10 nM
C=CC(=O)N1CC[C@@H](N(C)c2nc(OCC34CCCN3CCC4)nc3c2C[C@H](C)[C@@H](c2nc(N)cc(C)c2C(F)(F)F)C3)C1 [Example 148, 1-((R)-3-(((6S,7S)-7-(6-amino-4-methyl-3-(trifluoromethyl)pyridin-2-yl)-6-methyl-2-((tetrahydro-1H-pyrrolizin-7a(5H)-yl)methoxy)-5,6,7,8-tetrahydroquinazolin-4-yl)(methyl)amino)pyrrolidin-1-yl)prop-2-en-1-one]	100 to 500 nM
Cc1noc(/C=C/C(=O)N2CC[C@@H](N(C)c3nc(OCC45CCCN4CCC5)nc4c3C[C@H](C)C(c3nc(N)cc(C)c3C(F)(F)F)C4)C2)n1 (stereo in doubt) [Example 163]	10 to 100 nM
Cc1cc(N)nc([C@@H]2Cc3nc(OC[C@@]45CCCN4C[C@H](F)C5)nc(N(C)[C@@H]4CCN(C(=O)/C=C/c5nc(C(C)(C)O)no5)C4)c3C[C@H]2C)c1C(F)(F)F [Example 89, (E)-1-((R)-3-(((6R,7R)-7-(6-amino-4-methyl-3-(trifluoromethyl)pyridin-2-yl)-2-(((2R,7aS)-2-fluorotetrahydro-1H-pyrrolizin-7a(5H)-yl)methoxy)-6-methyl-5,6,7,8-tetrahydroquinazolin-4-yl)(methyl)amino)pyrrolidin-1-yl)-3-(3-(2-hydroxypropan-2-yl)-1,2,4-oxadiazol-5-yl)prop-2-en-1-one]	< 10 nM
C=CC(=O)N1CC[C@@H](N(C)c2nc(OC[C@@]34CCCN3C[C@H](F)C4)nc3c(F)c(-c4nccc(C)c4C(F)(F)F)ncc23)C1 [Example 211]	≥ 500 nM
C=CC(=O)N1CC[C@@H](N(C)c2nc(OC[C@@]34CCCN3C[C@H](F)C4)nc3c(F)c(-c4cccc(Cl)c4C4CC4)ncc23)[C@H]1C [Example 236]	100 to 500 nM
Cc1noc(/C=C/C(=O)N2CC[C@@H](N(C)c3nc(OC[C@@]45CCCN4C[C@H](F)C5)nc4c(F)c(-c5nc(N)cc(C)c5C5CC5)ncc34)C2)n1 [Example 11, (E)-1-((R)-3-((7-(6-amino-3-cyclopropyl-4-methylpyridin-2-yl)-8-fluoro-2-(((2R,7aS)-2-fluorotetrahydro-1H-pyrrolizin-7a(5H)-yl)methoxy)pyrido[4,3-d]pyrimidin-4-yl)(methyl)amino)pyrrolidin-1-yl)-3-(3-methyl-1,2,4-oxadiazol-5-yl)prop-2-en-1-one]	< 10 nM
C=CC(=O)N1CC[C@@H](N(C)c2nc(OCC34CCCN3CCC4)nc3c(F)c(-c4nc(N)cc5cccc(F)c45)ncc23)C1 [Example 75, (R)-1-(3-((7-(3-amino-8-fluoroisoquinolin-1-yl)-8-fluoro-2-((hexahydro-1H-pyrrolizin-7a-yl)methoxy)pyrido[4,3-d]pyrimidin-4-yl)(methyl)amino)pyrrolidin-1-yl)prop-2-en-1-one]	100 to 500 nM
C=CC(=O)N1CC(CN(C)c2nc(OCC34CCCN3CCC4)nc3c2C[C@H](C)[C@@H](c2nc(N)cc(C)c2C(F)(F)F)C3)C1 (single isomer, unassigned) [Example 50]	≥ 500 nM
C=CC(=O)N1CC[C@@H](N(C)c2nc(OC[C@@]34CCCN3C[C@H](F)C4)nc3c(F)c(-c4cc(O)ccc4C4CC4)ncc23)C1 [Example 31, 1-((R)-3-((7-(2-cyclopropyl-5-hydroxyphenyl)-8-fluoro-2-(((2R,7aS)-2-fluorotetrahydro-1H-pyrrolizin-7a(5H)-yl)methoxy)pyrido[4,3-d]pyrimidin-4-yl)(methyl)amino)pyrrolidin-1-yl)prop-2-en-1-one]	10 to 100 nM
Cc1nsc(/C=C/C(=O)N2CC(CN(C)c3nc(OC[C@@]45CCCN4C[C@H](F)C5)nc4c(F)c(-c5nc(N)cc(C)c5C(F)(F)F)ncc34)C2)n1 [Example 4, (E)-1-(3-(((7-(6-amino-4-methyl-3-(trifluoromethyl)pyridin-2-yl)-8-fluoro-2-(((2R,7aS)-2-fluorohexahydro-1H-pyrrolizin-7a-yl)methoxy)pyrido[4,3-d]pyrimidin-4-yl)(methyl)amino)methyl)azetidin-1-yl)-3-(3-methyl-1,2,4-thiadiazol-5-yl)prop-2-en-1-one]	10 to 100 nM
